The text below walks through data of paper PMC9457828, “Chemical Markers and Pharmacological Characters of Pelargonium graveolens Essential Oil from Palestine” (Molecules, 2022).

≈ marks a conversion by molar mass, not a printed value. Marks after values point to notes of the source that are not given here.

What is called MIC is the lowest concentration found to suppress growth. The IC50 is the midpoint of a concentration-inhibition curve.

Test [1] has as its system methicillin-resistant S. aureus (MRSA). Kind of test: Broth microdilution, MRSA. It counts as cell-based. As to conditions: Staphylococcus aureus, clinical strain. In general terms: Broth dilution looks for growth in wells or tubes with falling amounts of substance.
Text: (§1) The microdilution method was used to assess the antimicrobial activity of the PGEO against selected bacterial and fungal strains according to the method [49].
In test [2] the test system is Pseudomonas aeruginosa (9027). Kind of test: Broth microdilution, P. aeruginosa. It counts as cell-based.
Text: as §1
A further test concerns Proteus vulgaris (8427). Nature of the test: Broth microdilution, P. vulgaris. It counts as cell-based.
In test [3] the test system is Staphylococcus aureus (2592). Nature of the test: Broth microdilution, S. aureus. It counts as cell-based.
Text: as §1
Test [4] relates to Klebsiella pneumonia (13,883). Kind of test: Broth microdilution, K. pneumoniae. It counts as cell-based.
Text: as §1
Test [5] has as its system Escherichia coli (25,922). Kind of test: Broth microdilution, E. coli. It counts as cell-based.
Text: as §1
A further test concerns Hep3B. Kind of test: cells. It counts as cell-based. The settings on record: Homo sapiens, 24 h, MTS. As to the method:
Human cervical (HeLa), breast (MCF-7), and liver (Hep3B) cancer cell lines were cultured in RPMI-1640 medium (Sigma-Norwich, Norfolk, UK). Then each kind of the tested cells was treated with 10% fetal bovine serum mixed with 1% penicillin/streptomycin antibiotics (BI, Ghaziabad, UP, India), and 1% L-glutamine (Sigma-Norwich, Norfolk, UK). The cancer cells were cultured at 37 °C in a humidified atmosphere with 5% CO2 and then planted in a 96-well plate at 2.6 × 10^4 cells/well. After 2 days, the EO with different concentrations (10, 30, 60, 120, and 500 µg/mL) was applied to the cells for 24 h. According to the manufacturer’s guidelines, cell viability was estimated by the CellTilter 96® Aqueous One Solution Cell Proliferation (MTS) method. In the end, 100 μL of media and 20 μL of MTS solution were added to each well, and the well plates were incubated at 37 °C for 2 h. The absorbance was measured at 490 nm.

Test [6] has as its system Candida albicans (ATCC 90028). Kind of test: Broth microdilution, C. albicans. The settings on record: ATCC90028. It counts as cell-based.
Text: as §1
For the next test, the target named is lipase. More on the design: method as in earlier work. The settings on record: PGEO from Jordan; cited from earlier work.
Test [7] is described as follows: DPPH free radical scavenging activity. The settings on record: anti-DPPH radical activity, 30 min, 517 nm. The protocol:
Spectrophotometry at 517 nm was used to measure the absorbance, which was then compared with the control. The DPPH suppressant effect was calculated using the formula below: […]
A general note: Loss of DPPH colour is used to gauge radical scavenging.

The next test has as its system E. coli. More on the design: method as in PMID 26221178. As to conditions: cited from earlier work.
Another test deals with S. aureus species. On the set-up: method as in PMID 31284397. As to conditions: cited from earlier work.
In a further test the test system is S. aureus. On the set-up: method as in PMID 26221178. As to conditions: cited from earlier work.

Text for Proteus vulgaris (8427): as §1

As for `CC1(C)S[C@@H]2[C@H](NC(=O)[C@H](N)c3ccccc3)C(=O)N2[C@H]1C(=O)O` [Ampicillin], the MIC in test [1] was 32 ± 0.64 µg/mL (≈ 91.6 µM); in test [2], 100 ± 1.01 µg/mL (≈ 286 µM); in the test with Proteus vulgaris (8427) it was 3.25 ± 0.21 µg/mL (≈ 9.3 µM); in test [3] it was 6.25 ± 0.2 µg/mL (≈ 17.9 µM); in test [4], 12.5 ± 0.05 µg/mL (≈ 35.8 µM); in test [5], 3.12 ± 0.56 µg/mL (≈ 8.93 µM).
For `O=C(O)c1cn(C2CC2)c2cc(N3CCNCC3)c(F)cc2c1=O` [Ciprofloxacin], the MIC (against Proteus vulgaris (8427); in test [4]) was 0.06 ± 0.001 µg/mL (≈ 0.181 µM) each time.
For `COc1cccc2c1C(=O)c1c(O)c3c(c(O)c1C2=O)C[C@@](O)(C(=O)CO)C[C@@H]3O[C@H]1C[C@H](N)[C@H](O)[C@H](C)O1` [Doxorubicin], the IC50 in the test with Hep3B was found to be 1.21 ± 1 µg/mL (≈ 2.23 µM).
With `OC(Cn1cncn1)(Cn1cncn1)c1ccc(F)cc1F` [Fluconazole], the MIC in [6] was found to be 3.12 ± 0.01 µg/mL (≈ 10.2 µM).
Turning to `CCCCCCCCCCC[C@@H](C[C@@H]1OC(=O)[C@H]1CCCCCC)OC(=O)[C@H](CC(C)C)NC=O` [Orlistat], the “anti-lipase IC50” value on lipase is on record as 0.114 ± 0.0 µg/mL.
For `Cc1c(C)c2c(c(C)c1O)CCC(C)(C(=O)O)O2` (stereo not drawn) [Trolox], in test [7], the “IC50 against DPPH” value is reported as 1.88 ± 0.45 ^a µg/mL.
In the case of `CC(C)=CCCC(C)CCO` (stereo not drawn) [citronellol], the “MIC E. coli” value in the test with E. coli was 300 µg/mL (≈ 1920 µM). Also, the entries for the “MIC S. aureus” value in the test on S. aureus species and in the test on S. aureus were 30 µg/mL (≈ 192 µM) and 400 µg/mL (≈ 2560 µM), respectively.
